Assay results as given in paper PMC4880283, “Crystal Structures of Putative Sugar Kinases from Synechococcus Elongatus PCC 7942 and Arabidopsis Thaliana” (PLoS ONE, 2016).
One block for each molecule: values may come before it.

Columns and labels:
SePSK [1] = target: T1, SePSK (Synechococcus elongatus, UniProt Q31KC7, T11A); assay: ADP-Glo kinase assay; type: biochemical; settings: 5 mM D-ribulose, 100 uM ATP, 1 mM MgCl2, 20 mM HEPES pH 7.4, 298 K; activity much lower than wild type
T1 construct: gene PSK; full length (426 aa), pET28-a (Nco I/Xho I), C-terminal His6 tag kept, E. coli BL21(DE3)

SePSK [2] = target: T2, SePSK (Synechococcus elongatus, UniProt Q31KC7, D221A); assay: ADP-Glo kinase assay; type: biochemical; settings: 5 mM D-ribulose, 100 uM ATP, 1 mM MgCl2, 20 mM HEPES pH 7.4, 298 K; activity much lower than wild type
T2 construct: gene PSK; full length (426 aa), pET28-a (Nco I/Xho I), C-terminal His6 tag kept, E. coli BL21(DE3)

SePSK [3] = target: T3, SePSK (Synechococcus elongatus, UniProt Q31KC7, D8A); assay: surface plasmon resonance (single-cycle kinetics, CM5); type: binding; settings: rate constant (off-rate), not an equilibrium Kd; 1:1 Langmuir fit; 20 mM HEPES pH 7.5, 100 mM NaCl; 298 K
T3 construct: gene PSK; full length (426 aa), pET28-a (Nco I/Xho I), C-terminal His6 tag kept, E. coli BL21(DE3)

SePSK [4] = target: T3, SePSK; assay: ADP-Glo kinase assay; type: biochemical; settings: 5 mM D-ribulose, 100 uM ATP, 1 mM MgCl2, 20 mM HEPES pH 7.4, 298 K; activity much lower than wild type
AtXK-1 [5] = target: T4, AtXK-1 (Arabidopsis thaliana, UniProt Q8L794); assay: X-ray crystal structure (soak); type: binding; settings: crystal soaked in 10 mM AMP-PNP, 20 mM MgCl2; ATP site in domain II
T4 construct: gene XK1; mature form (436 aa) without chloroplast transit peptide; forward primer encodes VMSGNKGT; pMCSG7, N-terminal His6 removed by TEV protease, E. coli BL21(DE3)

SePSK [6] = target: T5, SePSK (Synechococcus elongatus, UniProt Q31KC7); assay: X-ray crystal structure, […] A (soak); type: binding; settings: crystal soaked in 10 mM AMP-PNP, 20 mM MgCl2; ATP site in domain II
T5 construct: gene PSK; full length (426 aa), pET28-a (Nco I/Xho I), C-terminal His6 tag kept, E. coli BL21(DE3)

SePSK [7] = target: T5, SePSK; assay: ADP-Glo kinase assay; type: biochemical; settings: 100 uM ATP, no sugar, 1 mM MgCl2, 20 mM HEPES pH 7.4, 298 K
AtXK-1 [8] = target: T4, AtXK-1; assay: ADP-Glo kinase assay; type: biochemical; settings: 100 uM ATP, no sugar, 1 mM MgCl2, 20 mM HEPES pH 7.4, 298 K

T3 sequence (Q31KC7 whole entry D8A): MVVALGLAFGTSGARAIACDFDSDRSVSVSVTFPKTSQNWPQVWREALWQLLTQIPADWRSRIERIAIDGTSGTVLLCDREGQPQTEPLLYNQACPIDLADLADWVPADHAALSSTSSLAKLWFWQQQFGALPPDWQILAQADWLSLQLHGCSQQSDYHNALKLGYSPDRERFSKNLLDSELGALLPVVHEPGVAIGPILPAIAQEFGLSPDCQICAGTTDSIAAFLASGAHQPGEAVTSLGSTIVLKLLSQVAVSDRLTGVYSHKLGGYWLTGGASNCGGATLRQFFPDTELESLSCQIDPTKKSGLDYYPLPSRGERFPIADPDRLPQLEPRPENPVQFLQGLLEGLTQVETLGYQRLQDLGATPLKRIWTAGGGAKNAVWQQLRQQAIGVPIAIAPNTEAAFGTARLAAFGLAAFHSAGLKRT
T5 sequence (Q31KC7 whole entry, the tested form may be a part): as the sequence (Q31KC7 whole entry D8A) above, with A8D counted along it
T4 sequence (Q8L794 43-478): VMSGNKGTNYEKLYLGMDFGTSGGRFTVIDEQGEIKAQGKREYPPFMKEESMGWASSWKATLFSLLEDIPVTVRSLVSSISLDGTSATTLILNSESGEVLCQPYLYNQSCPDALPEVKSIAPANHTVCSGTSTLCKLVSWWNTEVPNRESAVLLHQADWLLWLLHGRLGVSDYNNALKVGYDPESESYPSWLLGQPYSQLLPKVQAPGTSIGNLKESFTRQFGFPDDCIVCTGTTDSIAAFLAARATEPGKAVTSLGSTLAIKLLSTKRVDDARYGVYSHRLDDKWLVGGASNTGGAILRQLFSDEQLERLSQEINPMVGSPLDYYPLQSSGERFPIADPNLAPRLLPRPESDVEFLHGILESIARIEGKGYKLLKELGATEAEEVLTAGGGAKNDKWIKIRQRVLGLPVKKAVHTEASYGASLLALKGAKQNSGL
T1 sequence (Q31KC7 whole entry T11A): as the sequence (Q31KC7 whole entry D8A) above, with A8D, T11A counted along it
T2 sequence (Q31KC7 whole entry D221A): as the sequence (Q31KC7 whole entry D8A) above, with A8D, D221A counted along it

Dissociation rate constant (koff) (SePSK [3]): 9 ms^-1
Structure (SMILES): O=C(CO)[C@H](O)[C@H](O)CO [D-ribulose]
ADP-Glo kinase assay (SePSK [1]): all of these mutants exhibit much lower activity of ATP hydrolysis after adding D-ribulose
ADP-Glo kinase assay (SePSK [2]): all of these mutants exhibit much lower activity of ATP hydrolysis after adding D-ribulose
ADP-Glo kinase assay (SePSK [4]): all of these mutants exhibit much lower activity of ATP hydrolysis after adding D-ribulose

Structure (SMILES): Nc1ncnc2c1ncn2[C@@H]1O[C@H](COP(=O)(O)OP(=O)(O)NP(=O)(O)O)[C@@H](O)[C@H]1O [AMP-PNP]
X-ray crystal structure (soak) (AtXK-1 [5]): soaked the crystals of apo-SePSK and apo-AtXK-1 into the reservoir adding AMP-PNP
X-ray crystal structure, 2.3 A (soak) (SePSK [6]): one SePSK protein molecule is in an asymmetric unit with one AMP-PNP molecule

Structure (SMILES): Nc1ncnc2c1ncn2[C@@H]1O[C@H](COP(=O)(O)OP(=O)(O)OP(=O)(O)O)[C@@H](O)[C@H]1O [ATP]
ADP-Glo kinase assay (SePSK [7]): both SePSK and AtXK-1 exhibited ATP hydrolysis activity
ADP-Glo kinase assay (AtXK-1 [8]): both SePSK and AtXK-1 exhibited ATP hydrolysis activity
